In article PMC10121968, “Fosgonimeton, a Novel Positive Modulator of the HGF/MET System, Promotes Neurotrophic and Procognitive Effects in Models of Dementia” (Neurotherapeutics, 2022):
Non-standard residues stand in square brackets, D forms with d. Residues, ends and D or L forms follow the SMILES beside them. *: point of attachment. Hexanoyl = CCCCCC(=O)*; Ahx = NCCCCCC(=O)O

Key:
MET receptor = target: T1, MET receptor (Homo sapiens, UniProt P08581); test: Phosphorylated MET receptor (pMET) ELISA in HEK293 cell lysates; format: cell-based; conditions: HEK293 cells, 1 ng/mL HGF, 0.001–100 nM, 15 min
T1 construct: pMET enzyme-linked immunosorbent assay (ELISA) of human embryonic kidney (HEK293) cell lysates; endogenous in cells; host or cells: HEK293 (ATCC CRL-1573)
T1 sequence (P08581 308-1390 limits assumed): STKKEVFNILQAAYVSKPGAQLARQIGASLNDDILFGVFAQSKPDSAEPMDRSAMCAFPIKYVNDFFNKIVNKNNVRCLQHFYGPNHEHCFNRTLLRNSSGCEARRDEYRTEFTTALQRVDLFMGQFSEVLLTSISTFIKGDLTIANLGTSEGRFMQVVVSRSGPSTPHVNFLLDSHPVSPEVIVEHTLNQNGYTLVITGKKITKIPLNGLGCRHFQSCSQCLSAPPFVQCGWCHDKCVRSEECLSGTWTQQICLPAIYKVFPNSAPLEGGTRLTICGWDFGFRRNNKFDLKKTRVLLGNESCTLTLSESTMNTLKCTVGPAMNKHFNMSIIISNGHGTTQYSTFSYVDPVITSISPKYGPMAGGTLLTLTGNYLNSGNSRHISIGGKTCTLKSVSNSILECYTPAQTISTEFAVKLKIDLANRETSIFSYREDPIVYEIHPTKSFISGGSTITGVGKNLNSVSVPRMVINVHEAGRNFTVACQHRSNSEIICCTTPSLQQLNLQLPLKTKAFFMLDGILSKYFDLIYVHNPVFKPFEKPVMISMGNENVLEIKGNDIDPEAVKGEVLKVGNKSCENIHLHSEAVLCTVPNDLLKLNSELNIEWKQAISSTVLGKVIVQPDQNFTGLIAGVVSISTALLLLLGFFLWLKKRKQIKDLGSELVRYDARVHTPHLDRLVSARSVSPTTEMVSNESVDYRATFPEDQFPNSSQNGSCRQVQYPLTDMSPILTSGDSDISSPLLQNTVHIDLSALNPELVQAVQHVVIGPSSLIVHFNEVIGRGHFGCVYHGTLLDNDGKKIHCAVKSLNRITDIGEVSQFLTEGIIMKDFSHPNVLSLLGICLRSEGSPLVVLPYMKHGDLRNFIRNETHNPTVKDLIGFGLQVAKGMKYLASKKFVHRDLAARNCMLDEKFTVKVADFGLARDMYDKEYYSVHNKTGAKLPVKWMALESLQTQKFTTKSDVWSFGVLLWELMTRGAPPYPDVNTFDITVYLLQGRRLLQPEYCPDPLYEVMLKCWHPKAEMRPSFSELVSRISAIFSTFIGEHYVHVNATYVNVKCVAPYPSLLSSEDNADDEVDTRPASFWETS
T1 sequence (P08581 25-307 limits assumed): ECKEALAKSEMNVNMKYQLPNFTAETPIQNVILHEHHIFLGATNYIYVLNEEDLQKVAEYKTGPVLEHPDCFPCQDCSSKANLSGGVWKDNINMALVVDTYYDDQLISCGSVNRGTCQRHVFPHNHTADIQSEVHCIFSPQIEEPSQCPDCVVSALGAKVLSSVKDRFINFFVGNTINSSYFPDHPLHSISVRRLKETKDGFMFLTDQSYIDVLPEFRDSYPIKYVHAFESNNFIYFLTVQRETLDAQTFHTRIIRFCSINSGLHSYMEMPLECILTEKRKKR
Experimental: Human embryonic kidney (HEK293, ATCC CRL-1573) cells were grown at 37 °C, 5% CO2 in Dulbecco's Modified Eagle Medium (DMEM) + 10% fetal bovine serum (FBS) in T-75 flasks until approximately 90% confluent and then seeded in polystyrene-treated 6-well plates for at least 8 h in serum-free growth media. Recombinant HGF protein (R&D Systems, Minneapolis, Minnesota) with or without experimental small-molecule treatment cocktails (Jubilant Biosys, Uttar Pradesh, India) were prepared in DMEM + 0.1% FBS and added to wells in triplicate for 15 min. Cells were lysed with 180 μL ice-cold RIPA buffer including a phosphatase inhibitor (PhosphataseArrest, G-Biosciences, St. Louis, Missouri) on ice for 15 min and then cleared by centrifugation at 16,000 g. Bicinchoninic acid (BCA) assays of lysates were used to normalize protein concentration across samples. Phosphorylated MET receptor (pMET) enzyme-linked immunosorbent assay (ELISA) kit processing was carried out according to the manufacturer’s instructions (Phospho-MET [Tyr1234/1235] Sandwich ELISA Kit, CST #7227C, Cell Signaling Technology, Danvers, Massachusetts). Raw absorbance signals were scaled between subthreshold (1 ng/mL HGF) and saturating (10 ng/mL HGF) controls such that HGF 1 ng/mL = 1 and HGF 10 ng/mL = 10. The statistical difference from subthreshold control was determined by Student’s t-test. […]

ERK (Thr202/Tyr204) = test: Phospho-ERK HTRF assay in HEK293 cells; format: cell-based, human; conditions: HEK293, subthreshold HGF 0.1 ng/mL + fosgo-AM 1 µM, vs HGF alone
From the text: To determine phosphoactivation status of the intracellular signaling molecules ERK (Thr202/Tyr204) or AKT (Ser473), we used homogenous time-resolved fluorescence (HTRF) kits to assess phosphorylation status based on the energy transfer between donor and acceptor phospho-ERK (pERK) or phospho-AKT (pAKT) antibodies. HTRF kit processing for pERK (Phospho-ERK [Thr202/Tyr204] cellular Advanced kit, #64AERPEG, Cisbio, Codolet, France) and pAKT (Phospho-AKT [Ser473] cellular kit, #64AKSPEG, Cisbio, Codolet, France) were carried out per manufacturer instructions. In brief, HEK293 cells were grown at 37 °C, 5% CO2 in DMEM + 10% FBS until approximately 80% confluent. Cells were seeded in polystyrene-treated 96-well cell culture plates at approximately 50,000 cells/well and cultured overnight in 50 µL serum-free growth media. […] Fluorescence emission at 2 different wavelengths (665 nm and 620 nm) were measured on an Envision plate reader (PerkinElmer, Waltham, Massachusetts), and the HTRF ratio of the acceptor and donor emission signals for each well was calculated as follows: HTRF ratio = (665 nm/620 nm) × 10,000. […] Data were assessed for normality (Shapiro–Wilk) and homoscedasticity (Brown-Forsythe). Statistical significance was determined by one-way analysis of variance (ANOVA) with Tukey’s multiple comparison post-test. […]

MDCK cells = test: MDCK cell scatter behavior assay; format: cell-based, canine; conditions: HGF 10 ng/mL + fosgo-AM 10 pM, 100 pM and 1 nM, 24 h, vs HGF alone
Experimental: Madin-Darby canine kidney (MDCK, ATCC CCL-34) cells were grown at 37 °C, 5% CO2 in Eagle’s Minimum Essential Medium (EMEM) + 10% FBS in T-75 flasks until 80% confluent. Cells were then plated at 1400 cells/well in black-walled, clear-bottom 96-well plates and grown at 37 °C under 5% CO2 for 24 h. Growth media were replaced by serum-free media for 2 h before treatment. Treatments containing HGF and fosgo-AM were made in serum-free media and applied in quintuplicates for 24 h at 37 °C under 5% CO2. Cells were then fixed in chilled 100% EtOH at 4 °C for 20 min and then stained with wheat germ agglutinin conjugated to CF488 (WGA488, Biotium, 29,022–1, Fremont, California) at […] in phosphate-buffered saline (PBS) for 30 min at RT to visualize whole-cell surfaces. Cultures were then imaged with an iCys instrument (iCyte, Thor Labs, Newton, New Jersey) and analyzed with the ImageJ (National Institutes of Health) particle count feature. Scattering behavior was quantified by normalizing particle counts against total stained area. […] Data were assessed for normality (Shapiro–Wilk) and homoscedasticity (Brown-Forsythe). The statistical difference from HGF alone was determined by one-way ANOVA with Dunnett’s multiple comparison post-test with an alpha value of 0.05 (Prism, GraphPad).

[1] = Fosgonimeton CNS distribution in mice; format: in vivo, mouse; conditions: 5 mg/kg fosgonimeton IV, whole brain, 0.16 h
Experimental: Four C57BL/6 mice—2 males and 2 females—were treated with 5 mg/kg fosgonimeton via intravenous (IV) injection. At 0.16 h after dosing, animals were humanely killed and perfused with normal saline. The whole brain was collected and homogenized before determination of fosgonimeton and fosgo-AM tissue penetration by LC/MS/MS.

Cmax, ng/g ± SEM [1]: 7.9 ± 2.3 ng/g
SMILES: CCCCCC(=O)N[C@@H](Cc1ccc(O)cc1)C(=O)N[C@H](C(=O)NCCCCCC(N)=O)[C@@H](C)CC [fosgo-AM] (Hexanoyl-Tyr-Ile-[Ahx]-NH2)
enhancement of pMET levels in the presence of low HGF (MET receptor): most potent positive modulator of HGF/MET
pERK levels (ERK (Thr202/Tyr204)): significant increase
cell scattering behavior (MDCK cells): significant cell scattering
